Active and inactive are the calls of the source. No cut-off for these calls is given here.
Experiments:
Candida albicans [1] = test: Reversal of fluconazole mediated azole resistance Candida albicans 904 assessed as downregulation of CDR1 at 32 ug/ml in presence of fluconazole by RT-PCR; format: functional, organism-based; settings: dose 32.0 µg/ml
Candida albicans [2] = test: Reversal of fluconazole mediated azole resistance Candida albicans 904 assessed as downregulation of ERG11 at 32 ug/ml in presence of fluconazole by RT-PCR; format: functional, organism-based; settings: dose 32.0 µg/ml
[3] = Metabolic stability in rat liver microsomes assessed as microsomal intrinsic clearance in presence of NADPH cofactor under shaking condition for 10 mins measured after 5 to 60 mins by LC-MS/MS analysis; format: ADME, Microsome; settings: time 15-70 min
[4] = Metabolic stability in rat liver microsomes assessed as intrinsic clearance in presence of NADPH cofactor under shaking condition for 10 mins measured after 5 to 60 mins by LC-MS/MS analysis; format: ADME, Microsome; settings: time 15-70 min
CYP1A2 = target: T1, CYP1A2 (Homo sapiens, UniProt P05177); test: Inhibition of CYP1A2 in human liver microsome at 10 uM using phenacetin as substrate incubated for 10 mins in presence of NADPH cofactor and fluconazole by LC-MS/MS analysis; format: ADME; settings: liver microsomes, probe phenacetin
T1 sequence (P05177 whole entry): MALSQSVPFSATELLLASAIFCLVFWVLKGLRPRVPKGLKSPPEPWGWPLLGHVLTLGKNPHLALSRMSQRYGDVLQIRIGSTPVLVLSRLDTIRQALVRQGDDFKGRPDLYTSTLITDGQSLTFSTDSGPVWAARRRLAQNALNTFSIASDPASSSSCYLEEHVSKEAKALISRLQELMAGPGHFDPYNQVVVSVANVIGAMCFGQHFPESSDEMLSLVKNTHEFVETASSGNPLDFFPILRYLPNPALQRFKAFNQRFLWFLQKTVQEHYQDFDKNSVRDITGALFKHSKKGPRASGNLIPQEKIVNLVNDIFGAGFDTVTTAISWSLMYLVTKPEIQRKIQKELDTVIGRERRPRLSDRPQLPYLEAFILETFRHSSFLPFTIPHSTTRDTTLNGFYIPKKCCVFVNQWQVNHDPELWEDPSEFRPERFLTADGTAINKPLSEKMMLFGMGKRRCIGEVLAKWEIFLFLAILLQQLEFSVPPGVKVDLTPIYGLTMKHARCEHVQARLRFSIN

CYP2C9 = CYP2C9 (Homo sapiens, UniProt P11712); test: Inhibition of CYP2C9 in human liver microsome at 10 uM using diclofenac as substrate incubated for 10 mins in presence of NADPH cofactor and fluconazole by LC-MS/MS analysis; format: ADME; settings: liver microsomes, probe diclofenac
CYP2C9, sequence (P11712 whole entry): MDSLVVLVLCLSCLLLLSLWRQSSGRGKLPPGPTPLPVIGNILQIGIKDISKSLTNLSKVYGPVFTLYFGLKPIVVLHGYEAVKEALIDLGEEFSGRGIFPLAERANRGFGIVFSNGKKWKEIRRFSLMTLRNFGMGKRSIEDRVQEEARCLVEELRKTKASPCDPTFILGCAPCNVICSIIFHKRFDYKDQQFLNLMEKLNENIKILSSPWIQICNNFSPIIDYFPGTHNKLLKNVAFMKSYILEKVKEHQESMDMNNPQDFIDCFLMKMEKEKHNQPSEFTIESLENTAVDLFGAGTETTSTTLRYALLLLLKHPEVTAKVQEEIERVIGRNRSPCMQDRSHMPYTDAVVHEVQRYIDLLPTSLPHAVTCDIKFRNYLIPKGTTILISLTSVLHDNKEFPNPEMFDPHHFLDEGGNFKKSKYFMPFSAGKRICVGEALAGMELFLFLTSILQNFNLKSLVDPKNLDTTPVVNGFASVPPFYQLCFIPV

CYP2D6 = CYP2D6 (Homo sapiens, UniProt P10635); test: Inhibition of CYPD6 in human liver microsome at 10 uM using dextromethorphan as substrate incubated for 10 mins in presence of NADPH cofactor and fluconazole by LC-MS/MS analysis; format: ADME; settings: liver microsomes, probe dextromethorphan
CYP2D6, sequence (P10635 whole entry): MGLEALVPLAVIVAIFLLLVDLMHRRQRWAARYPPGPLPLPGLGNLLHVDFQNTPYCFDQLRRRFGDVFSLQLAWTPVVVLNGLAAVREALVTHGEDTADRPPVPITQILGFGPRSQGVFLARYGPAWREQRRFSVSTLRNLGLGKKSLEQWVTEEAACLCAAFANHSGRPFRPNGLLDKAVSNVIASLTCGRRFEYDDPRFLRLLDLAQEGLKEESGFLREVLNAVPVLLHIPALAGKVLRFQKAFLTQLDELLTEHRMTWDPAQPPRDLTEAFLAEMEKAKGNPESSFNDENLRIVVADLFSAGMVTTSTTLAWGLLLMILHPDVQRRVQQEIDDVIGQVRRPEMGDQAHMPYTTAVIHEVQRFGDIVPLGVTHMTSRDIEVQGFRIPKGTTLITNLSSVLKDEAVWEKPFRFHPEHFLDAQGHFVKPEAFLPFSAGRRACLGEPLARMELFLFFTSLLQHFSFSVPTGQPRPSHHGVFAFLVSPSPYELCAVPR

CYP3A4 = CYP3A4 (Homo sapiens, UniProt P08684); test: Inhibition of CYP3A4 in human liver microsome at 10 uM using midazolam as substrate incubated for 10 mins in presence of NADPH cofactor and fluconazole by LC-MS/MS analysis; format: ADME; settings: liver microsomes, probe midazolam
CYP3A4, sequence (P08684 whole entry): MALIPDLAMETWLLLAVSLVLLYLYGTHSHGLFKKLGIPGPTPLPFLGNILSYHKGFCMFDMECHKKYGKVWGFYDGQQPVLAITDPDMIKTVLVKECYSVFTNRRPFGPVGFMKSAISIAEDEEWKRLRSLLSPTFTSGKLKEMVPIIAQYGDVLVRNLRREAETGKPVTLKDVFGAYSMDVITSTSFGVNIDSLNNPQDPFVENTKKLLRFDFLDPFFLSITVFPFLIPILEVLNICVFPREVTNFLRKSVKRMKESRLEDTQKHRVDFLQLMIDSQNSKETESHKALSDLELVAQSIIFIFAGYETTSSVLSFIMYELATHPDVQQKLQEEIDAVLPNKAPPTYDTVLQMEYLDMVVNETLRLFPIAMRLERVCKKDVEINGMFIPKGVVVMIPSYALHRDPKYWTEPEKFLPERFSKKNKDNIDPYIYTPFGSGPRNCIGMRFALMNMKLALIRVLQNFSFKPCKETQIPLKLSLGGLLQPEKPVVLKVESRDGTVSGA

[5] = Half life in Sprague-Dawley rat at 10 mg/kg, iv measured upto 24 hrs by LC/MS/MS analysis; format: ADME, organism-based; settings: in vivo
[6] = Cmax in Sprague-Dawley rat at 10 mg/kg, iv measured up to 24 hrs by LC/MS/MS analysis; format: ADME, organism-based; parameters: dose 10 mg/kg, time < 24 hrs, route iv; settings: in vivo
[7] = C0 in Sprague-Dawley rat at 10 mg/kg, iv measured upto 24 hrs by LC/MS/MS analysis; format: ADME, organism-based; settings: in vivo
[8] = AUC (0 to t) in Sprague-Dawley rat at 10 mg/kg, iv measured upto 24 hrs by LC/MS/MS analysis; format: ADME, organism-based; parameters: time < 24 hrs, dose 10 mg/kg, route iv; settings: in vivo
[9] = Clearance in Sprague-Dawley rat at 10 mg/kg, iv measured upto 24 hrs by LC/MS/MS analysis; format: ADME, organism-based; settings: in vivo
[10] = MRT (0 to infinity) in Sprague-Dawley rat at 10 mg/kg, iv measured upto 24 hrs by LC/MS/MS analysis; format: ADME, organism-based; settings: in vivo
Rattus norvegicus [11] = test: In vivo antifungal activity against azole resistant Candida albicans 904 infected in rat assessed as colonization of fungal cells at 10 mg/kg, ip administered for 5 days, qd by PAS and HE staining based microscopy; format: functional, organism-based; settings: time 5.0 day
Rattus norvegicus [12] = test: In vivo antifungal activity against azole resistant Candida albicans 904 infected in rat assessed as decrease in fungal invasion at 10 mg/kg, ip in presence of fluconazole administered for 5 days, qd by PAS and HE staining based microscopy; format: functional, organism-based; settings: time 5.0 day
[13] = Binding affinity to recombinant Candida albicans Hsp90 NBD expressed in Escherichia coli by SPR assay

SMILES	Activity (Candida albicans [1])	Activity (Candida albicans [2])	CLint [3] [µL/min/mg]	CLint [4] [mL/min/kg]	inhibition at 10 min, 10 µM (CYP1A2) [%]	inhibition at 10 min, 10 µM (CYP2C9) [%]	inhibition at 10 min, 10 µM (CYP2D6) [%]	inhibition at 10 min, 10 µM (CYP3A4) [%]	half-life [5] [h]	Cmax [6] [ng/mL]	C0 at 24 h [7] [ng/mL]	AUC(0-t) at 24 h [8] [ng·h/mL]	clearance [9] [mL/min/kg]	MRT inf [10] [h]	Activity (Rattus norvegicus [11])	Activity (Rattus norvegicus [12])	Kd [13] [nM]
CCNC(=O)c1noc(-c2cc(-c3ccc(C)cc3)c(O)cc2O)c1-c1ccc(CN2CCOCC2)cc1	Active	Active	45.3	81.6	17.8	56.1	36.4	39.3	1.26	3440	4750	3010	102	1.12	Active	Active	–
CNC(=O)c1noc(-c2cc(-c3ccc(C)cc3)c(O)cc2O)c1-c1ccc(CN2CCOCC2)cc1	–	–	–	–	–	–	–	–	–	–	–	–	–	–	–	–	933
